Measured values taken from ChEMBL document CHEMBL1201862, “PubChem BioAssay data set” (2004).
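Protocol summary: plate cells (96-well), add compound at 5 concentrations, incubate 48 h, interpolate endpoints linearly. GI50 = concentration required for 50% inhibition of growth.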 Active and inactive are the calls of the source. No stated cut-off is given here; in the data, active = GI50 up to about 1.1 µM and inactive = higher.

Legend:
Assay in all cases: inhibition of tumour cell growth, NCI panel, 48 h
HCC 2998 = test system: HCC 2998
SK-OV-3 = test system: SK-OV-3
NCI-H460 = test system: NCI-H460
OVCAR-8 = test system: OVCAR-8
HT-29 = test system: HT-29
DU-145 = test system: DU-145
U-251 = test system: U-251
PC-3 = test system: PC-3
SR = test system: SR
RXF 393 = test system: RXF 393
Malme-3M = test system: Malme-3M
UACC-62 = test system: UACC-62
A549 = test system: A549
SF-268 = test system: SF-268
NCI-H226 = test system: NCI-H226
SF-539 = test system: SF-539
OVCAR-4 = test system: OVCAR-4
ACHN = test system: ACHN
COLO 205 = test system: COLO 205
Hs-578T = test system: Hs-578T

| Structure (SMILES) | GI50 (HCC 2998) | GI50 (SK-OV-3) | GI50 (NCI-H460) | GI50 (OVCAR-8) | GI50 (HT-29) | GI50 (DU-145) | GI50 (U-251) | GI50 (PC-3) | GI50 (SR) | GI50 (RXF 393) | GI50 (Malme-3M) | GI50 (UACC-62) | GI50 (A549) | GI50 (SF-268) | GI50 (NCI-H226) | GI50 (SF-539) | GI50 (OVCAR-4) | GI50 (ACHN) | GI50 (COLO 205) | GI50 (Hs-578T) |
| --- | --- | --- | --- | --- | --- | --- | --- | --- | --- | --- | --- | --- | --- | --- | --- | --- | --- | --- | --- | --- |
| O=c1c2ccccc2n2c(-c3ccccc3O)nnc2n1-c1ccccc1 | > 100 µM (inactive) | > 100 µM (inactive) | > 100 µM (inactive) | > 100 µM (inactive) | > 100 µM (inactive) | > 100 µM (inactive) | > 100 µM (inactive) | > 100 µM (inactive) | > 100 µM (inactive) | > 100 µM (inactive) | > 100 µM (inactive) | > 100 µM (inactive) | > 100 µM (inactive) | > 100 µM (inactive) | > 100 µM (inactive) | > 100 µM (inactive) | > 100 µM (inactive) | > 100 µM (inactive) | > 100 µM (inactive) | – |
| CCOC(=O)CCC(NC(=O)c1ccc(CNc2nc3ccccc3nc2C(=O)OCC)cc1)C(=O)OCC (centres undefined) | – | > 100 µM (inactive) | – | > 100 µM (inactive) | > 100 µM (inactive) | > 100 µM (inactive) | 21.8 µM (inactive) | > 100 µM (inactive) | – | – | 77.3 µM (inactive) | > 100 µM (inactive) | > 100 µM (inactive) | > 100 µM (inactive) | > 100 µM (inactive) | – | – | > 100 µM (inactive) | > 100 µM (inactive) | > 100 µM (inactive) |
| N#CC(C#N)=c1c(=O)c2c3ccccc3cc3cccc1c32 | > 100 µM (inactive) | > 100 µM (inactive) | > 100 µM (inactive) | – | > 100 µM (inactive) | > 100 µM (inactive) | > 100 µM (inactive) | 55.7 µM (inactive) | – | – | – | > 100 µM (inactive) | > 100 µM (inactive) | > 100 µM (inactive) | > 100 µM (inactive) | – | > 100 µM (inactive) | 37.1 µM (inactive) | > 100 µM (inactive) | 31.5 µM (inactive) |
| O=C(c1ccccc1)c1cc(-c2ccccc2)c(-c2ccccc2)[nH]c(=O)c1=O | 26.9 µM (inactive) | > 100 µM (inactive) | 34 µM (inactive) | 37.4 µM (inactive) | 36.6 µM (inactive) | – | 37.8 µM (inactive) | 36.6 µM (inactive) | 24.1 µM (inactive) | – | 49.3 µM (inactive) | 25.1 µM (inactive) | 41.7 µM (inactive) | 50.5 µM (inactive) | 43.4 µM (inactive) | 31.3 µM (inactive) | 33.7 µM (inactive) | 63.5 µM (inactive) | 27.2 µM (inactive) | 40.9 µM (inactive) |
| COc1ccc(C2=NN=C3C(c4ccccc4)=Nc4ccccc4N3C2)cc1 | 46.8 µM (inactive) | 80.2 µM (inactive) | 22.1 µM (inactive) | – | 20.1 µM (inactive) | 8.18 µM (inactive) | 14.5 µM (inactive) | 31.6 µM (inactive) | 3.04 µM (inactive) | 10.9 µM (inactive) | 25.2 µM (inactive) | 29.2 µM (inactive) | 35.7 µM (inactive) | 13.6 µM (inactive) | 41.6 µM (inactive) | 28.1 µM (inactive) | 6.49 µM (inactive) | 14.1 µM (inactive) | 15.3 µM (inactive) | – |
| Cc1cc(=O)c2cc(/N=C/c3ccc([N+](=O)[O-])o3)ccc2o1 | > 100 µM (inactive) | > 100 µM (inactive) | > 100 µM (inactive) | – | > 100 µM (inactive) | > 100 µM (inactive) | > 100 µM (inactive) | – | 32.7 µM (inactive) | – | 30 µM (inactive) | 56.1 µM (inactive) | > 100 µM (inactive) | 88.7 µM (inactive) | > 100 µM (inactive) | > 100 µM (inactive) | > 100 µM (inactive) | 91.6 µM (inactive) | > 100 µM (inactive) | > 100 µM (inactive) |
| Cc1ccccc1NC(=O)Cc1csc(N/N=C2\C(=O)Nc3ccccc32)n1 | – | – | 35.4 µM (inactive) | 16.6 µM (inactive) | 55.6 µM (inactive) | 75 µM (inactive) | 1 µM (active) | 18.6 µM (inactive) | – | 28.8 µM (inactive) | 32.4 µM (inactive) | 49.9 µM (inactive) | 48.9 µM (inactive) | 39.4 µM (inactive) | 41.8 µM (inactive) | 17.9 µM (inactive) | 21.8 µM (inactive) | 36.8 µM (inactive) | > 100 µM (inactive) | 25.8 µM (inactive) |
| CN1CCN(C(=S)N(C(=O)c2ccco2)c2ccccc2)CC1 | > 100 µM (inactive) | – | > 100 µM (inactive) | > 100 µM (inactive) | > 100 µM (inactive) | > 100 µM (inactive) | > 100 µM (inactive) | – | > 100 µM (inactive) | > 100 µM (inactive) | > 100 µM (inactive) | > 100 µM (inactive) | > 100 µM (inactive) | > 100 µM (inactive) | > 100 µM (inactive) | – | > 100 µM (inactive) | > 100 µM (inactive) | > 100 µM (inactive) | > 100 µM (inactive) |
| Cc1nc(N)nc(CCC(=O)Nc2cccc(C(F)(F)F)c2)c1-c1ccc(Cl)cc1 | > 100 µM (inactive) | > 100 µM (inactive) | > 100 µM (inactive) | > 100 µM (inactive) | > 100 µM (inactive) | – | > 100 µM (inactive) | – | 21.6 µM (inactive) | > 100 µM (inactive) | > 100 µM (inactive) | > 100 µM (inactive) | > 100 µM (inactive) | > 100 µM (inactive) | > 100 µM (inactive) | > 100 µM (inactive) | > 100 µM (inactive) | > 100 µM (inactive) | > 100 µM (inactive) | – |
| CN(C)/C=N\c1ccn(CCO)c(=O)n1 | > 100 µM (inactive) | > 100 µM (inactive) | > 100 µM (inactive) | > 100 µM (inactive) | > 100 µM (inactive) | – | > 100 µM (inactive) | – | > 100 µM (inactive) | > 100 µM (inactive) | > 100 µM (inactive) | > 100 µM (inactive) | > 100 µM (inactive) | > 100 µM (inactive) | > 100 µM (inactive) | > 100 µM (inactive) | > 100 µM (inactive) | > 100 µM (inactive) | > 100 µM (inactive) | – |
| CCCCC(=O)Nc1ccc2c(C)cc(-c3ccc(-c4cc(-c5ccc(C)cc5)cc(-c5ccc(-c6cc(C)c7ccc(NC(=O)CCCC)nc7n6)cc5)n4)cc3)nc2n1 | > 100 µM (inactive) | > 100 µM (inactive) | > 100 µM (inactive) | – | – | > 100 µM (inactive) | > 100 µM (inactive) | > 100 µM (inactive) | – | – | > 100 µM (inactive) | > 100 µM (inactive) | > 100 µM (inactive) | > 100 µM (inactive) | – | – | > 100 µM (inactive) | > 100 µM (inactive) | > 100 µM (inactive) | – |
| Cc1ccc(S(=O)(=O)N2CCCCC2CCO)cc1 (centres undefined) | > 100 µM (inactive) | > 100 µM (inactive) | > 100 µM (inactive) | > 100 µM (inactive) | > 100 µM (inactive) | – | > 100 µM (inactive) | – | > 100 µM (inactive) | > 100 µM (inactive) | > 100 µM (inactive) | > 100 µM (inactive) | > 100 µM (inactive) | > 100 µM (inactive) | > 100 µM (inactive) | > 100 µM (inactive) | > 100 µM (inactive) | > 100 µM (inactive) | > 100 µM (inactive) | – |
| CCC(Oc1ccc(OC)c2c1C(=O)CCC2)C(=O)O (centres undefined) | > 100 µM (inactive) | > 100 µM (inactive) | > 100 µM (inactive) | > 100 µM (inactive) | > 100 µM (inactive) | – | > 100 µM (inactive) | – | > 100 µM (inactive) | > 100 µM (inactive) | > 100 µM (inactive) | > 100 µM (inactive) | > 100 µM (inactive) | > 100 µM (inactive) | > 100 µM (inactive) | > 100 µM (inactive) | > 100 µM (inactive) | > 100 µM (inactive) | > 100 µM (inactive) | – |
| CC12CCC(CC1(Cl)Cl)C2 (centres undefined) | – | > 100 µM (inactive) | > 100 µM (inactive) | > 100 µM (inactive) | > 100 µM (inactive) | – | > 100 µM (inactive) | > 100 µM (inactive) | > 100 µM (inactive) | – | > 100 µM (inactive) | > 100 µM (inactive) | > 100 µM (inactive) | > 100 µM (inactive) | > 100 µM (inactive) | – | > 100 µM (inactive) | > 100 µM (inactive) | > 100 µM (inactive) | > 100 µM (inactive) |
| CCCCCCNc1n[nH]c(=O)c2c1nnn2Cc1ccccc1 | > 100 µM (inactive) | – | > 100 µM (inactive) | > 100 µM (inactive) | > 100 µM (inactive) | > 100 µM (inactive) | > 100 µM (inactive) | > 100 µM (inactive) | > 100 µM (inactive) | – | > 100 µM (inactive) | – | > 100 µM (inactive) | – | – | – | > 100 µM (inactive) | > 100 µM (inactive) | > 100 µM (inactive) | – |
| CC[C@]12C=CCN3CCC4(c5cc([C@@]6(C(=O)OC)CC7CN(CCc8c6[nH]c6ccccc86)C[C@@H]6CCC[C@H]76)c(OC)cc5N(C)C4[C@](O)(C(=O)OC)C1OC(C)=O)C32 (some centres undefined) | 0.29 µM (active) | 0.135 µM (active) | 0.142 µM (active) | 0.185 µM (active) | 0.103 µM (active) | 0.0165 µM (active) | 0.106 µM (active) | 0.0336 µM (active) | 0.0528 µM (active) | 0.21 µM (active) | 0.104 µM (active) | 0.0728 µM (active) | 0.231 µM (active) | 0.127 µM (active) | 0.201 µM (active) | 0.11 µM (active) | 0.792 µM (active) | 0.807 µM (active) | 0.083 µM (active) | – |
